In paper PMC12458685, “Thwarting Isomerization through Rigidity: A Promising HBED Derivative for the Chelation of Gallium-68” (Inorganic Chemistry, 2025):
Read-outs that look alike come from different tables or passages of the source. Blank lines part the entries; values can stand above or below the compound they belong to.

Tests used:
[1] = parameters: method as in number not given; conditions: ref number not given, cited from earlier work; for pGa^3+: under the same conditions (pH 7.4, C L = 10 μM, C Ga = 1 μM)
[2] = Thermodynamic stability of Ga^3+-HBCD (UV–vis and 1H NMR in-batch titrations; pGa^3+ calculation); type: physicochemical; conditions: for pGa^3+ (−log[Ga^3+]free): calculated at pH 7.4, C L = 10 μM and C Ga = 1 μM
Description: The thermodynamic stability of Ga^3+-HBCD was evaluated by UV–vis and ^1H NMR spectroscopies. Due to the slow complexation kinetics observed at highly acidic pH values, in-batch titrations were conducted, and heating was applied to speed up the attainment of equilibrium under these conditions. Representative pH-dependent ^1H NMR and UV–vis spectra are reported in Figures S12 and S13, respectively. The overall stability constants (log β) of Ga^3+-HBCD are provided in Table while the corresponding distribution diagram is shown in Figure in comparison with HBED.
To compare the chelating abilities of HBCD and HBED, the pGa^3+ values (pGa^3+ = −log[Ga^3+]free) were calculated under physiological conditions (pH = 7.4, C L = 10 μM and C Ga = 1 μM). This parameter accounts for both ligand basicity and metal-ion hydrolysis, with higher pGa^3+ values indicating greater complex stability under the given conditions.
(§1) UV–vis pH-spectrophotometric titrations were conducted using the in-cell method for the free HBCD and the out-of-cell method for the Ga^3+-HBCD mixture at T = 25 °C and I = 0.15 M NaCl. In the latter case, stock solutions of HBCD and Ga^3+ were combined in separate vials at 1:1 metal-to-ligand ratio (C Ga = C L = 20–50 μM). Small volumes (μL) of HCl and/or NaOH were used to adjust the pH. pH measurements were performed using a calibrated pH meter (Mettler-Toledo). The vials were sealed and heated to T = 80 °C to ensure complete complexation, then cooled to ambient temperature. The electronic spectra were recorded, and the equilibrium was considered to be reached when no further changes in either the pH or the electronic spectra were observed.
(§2) ^1H NMR spectra of free HBCD or Ga^3+-HBCD mixtures (C L = C Ga = 1 mM) were recorded at T = 25 °C and I = 0.15 M NaCl, in D2O, at different pH. The pH was adjusted following the procedure used in the UV–vis experiments. To account for isotopic effects, 0.41 log units were added to the measured pH values. Under highly acidic conditions, the pH was calculated from the HCl concentration using the formula pH = −log[C(H^+)]. […] Prolonged heating was applied to accelerate the complexation reaction. The thermodynamic data were elaborated with HypSpec, HypNMR or as described in previous publications. , Hydrolysis constants and solubility products of Ga^3+ in aqueous ionic media were taken from ref .

[3] = Acidity constants of HBCD by pH-dependent 1H NMR titration; type: physicochemical; conditions: T = 25 °C, I = 0.15 M NaCl
Excerpt: The assignment of the other four protonation constants (pK a,3, pK a,4, pK a,5 and pK a,6) is extremely challenging. […] According to NMR data of HBCD, pK a,3 can reasonably be assigned to one of the tertiary ammine. Once this dissociation occurs, the nitrogen atom can form a hydrogen bond with the phenolic group or with the other amine group. The next dissociation (pK a,4) can be attributed to the other phenolic moiety that can be then involved in the formation of the hydrogen bond with the protonated ammine. The last two dissociations can tentatively be attributed to the second phenolic group (pK a,5) and the tertiary amine (pK a,6).
as §2

[4] = Formation kinetics of Ga^3+-HBCD (1H NMR and UV–vis); type: physicochemical
Description: Before the thermodynamic investigation, the formation kinetics of the Ga^3+-HBCD complexes were qualitatively assessed using ^1H NMR and UV–vis spectroscopies at different pH and concentrations to determine the time needed to reach equilibrium. Understanding the equilibration conditions is essential for obtaining accurate thermodynamic data and for gaining an initial insight into the binding capacity of the new chelator.
The formation kinetics of the Ga^3+-HBCD complexes was evaluated at room temperature using ^1H NMR and UV–vis spectroscopies. Equimolar amounts of Ga^3+ and HBCD solutions (final concentrations: 1 mM for ^1H NMR, 50 μM for UV–vis) in buffered media (e.g., pH 2 HCl 10^–2 M, pH 4.5 acetic/acetate buffer). The complexation reaction was tracked by monitoring the increase in peaks characteristic of Ga^3+-ligand complex formation over time.

[5] = Acidity constants of HBCD by UV–vis pH-spectrophotometric titration; type: physicochemical; conditions: T = 25 °C, I = 0.15 M NaCl
Description: As the pH increases, the intensity of the band at 275 nm decreases, while two new bands emerge at 241 and 298 nm, with their absorbance progressively increasing. […] These pH-dependent changes in the electronic spectra allowed the determination of the acidity constants (pK a) of HBCD, which are summarized in Table .
as §1

[6] = Stability of HBCD aqueous stock solution (NMR, ESI-MS, UV–vis); type: physicochemical; conditions: room temperature, up to one month
Description: HBCD stock solutions were prepared by dissolving a weighed amount of ligand directly in Milli-Q water to achieve a concentration of approximately 1 mM. The solubility of HBCD in water depends on pH: minimal values occur at acidic pH, where the noncharged form predominates. To enhance solubility, small amount of NaOH were added, and the solution was sonicated for 15 min. The stability of HBCD at room temperature was confirmed by NMR, ESI-MS and UV–vis measurements conducted over the course of up to one month following solution preparation.

[7] = parameters: method as in number not given; conditions: for in vivo imaging; ref number not given; cited from earlier work
[8] = parameters: method as in number not given; conditions: I = 0.10 M KCl, T = 25 °C; literature data, ref number not given; cited from earlier work

Compound: O=C(O)CN1CCN(CC(=O)O)CCN(CC(=O)O)CCN(CC(=O)O)CC1 [DOTA, 1,4,7,10-tetraazacyclododecane-1,4,7,10-tetraacetic acid]
pGa^3+ [1]: 18.5

log β, Ga^3+ + H^+ + L^4– ⇌ [GaHL] ([2]; T = 25 °C, I = 0.15 M NaCl): 41.2 ± 0.1
log β, Ga^3+ + L^4– ⇌ [GaL]^− ([2]; T = 25 °C, I = 0.15 M NaCl): 39.2 ± 0.1
pGa^3+ (−log[Ga^3+]free) [2]: 27.0
pK a,1 (H6L^2+ ⇌ H^+ + H5L^+) [3]: 1.1 ± 0.2
pK a,2 (H5L^+ ⇌ H^+ + H4L) [3]: 3.1 ± 0.3
pK a,3 (H4L ⇌ H^+ + H3L^–) [3]: 4.9 ± 0.4
pK a,4 (H3L^– ⇌ H^+ + H2L^2–) [3]: 9.7 ± 0.3
pK a,5 (H2L^2– ⇌ H^+ + HL^3–) [3]: 12.2 ± 0.1
pK a,6 (HL^3– ⇌ H^+ + L^4–) [3]: 13.5 ± 0.2
pK a,3 (H4L ⇌ H^+ + H3L^–) ([5]; UV–vis): 5.20 ± 0.06
pK a,4 (H3L^– ⇌ H^+ + H2L^2–) ([5]; UV–vis): 9.42 ± 0.04
pK a,5 (H2L^2– ⇌ H^+ + HL^3–) ([5]; UV–vis): 11.94 ± 0.03
pK a,6 (HL^3– ⇌ H^+ + L^4–) ([5]; UV–vis): 13.2 ± 0.2
stability of HBCD in solution [6]: confirmed
Compound: O=C(O)CN(Cc1ccccc1O)[C@@H]1CCCC[C@H]1N(CC(=O)O)Cc1ccccc1O [HBCD, N,N′-di(2-hydroxybenzyl)-(1,2-cyclohexanediamine)-N,N′-diacetic acid]
Ga^3+ complex formation ([4]; pH ∼ 2, room temperature, after 24 h, 1H NMR): no complex formation was observed
time to reach completion of Ga^3+ complexation ([4]; pH ∼ 4.5, 50 μM, UV–vis): approximately 1 h
Ga^3+ complexation rate ([4]; pH ∼ 4.5, mM metal and ligand concentrations, 1H NMR): nearly instantaneous
average value of pK a,1 and pK a,2 ([5]; calculated from UV–vis data): d An average value of pK a,1 and pK a,2 equal to 1.7 ± 0.2 was calculated from UV–vis data.

Compound: O=C(O)CN(Cc1cccc(C(=O)O)n1)Cc1cccc(C(=O)O)n1 [dpaa]
serum stability of the [^68Ga]Ga^3+ complex [7]: poor

pGa^3+ (−log[Ga^3+]free) [2]: 29.6
Compound: O=C(O)CN(CCN(CC(=O)O)Cc1ccccc1O)Cc1ccccc1O [HBED, N,N′-di(2-hydroxybenzyl)ethylenediamine-N,N′-diacetic acid]
log β, Ga^3+ + H^+ + L^4– ⇌ [GaHL] ([1]; literature data): 40.81
log β, Ga^3+ + L^4– ⇌ [GaL]^− ([1]; literature data): 38.51
pK a,2 (H5L^+ ⇌ H^+ + H4L) [8]: 2.24
pK a,3 (H4L ⇌ H^+ + H3L^–) [8]: 4.40
pK a,4 (H3L^– ⇌ H^+ + H2L^2–) [8]: 8.34
pK a,5 (H2L^2– ⇌ H^+ + HL^3–) [8]: 11.03
pK a,6 (HL^3– ⇌ H^+ + L^4–) [8]: 12.64

Compound: transferrin: iron-transporting protein, one of the primary in vivo competitors for Ga^3+
pGa^3+ [1]: 20.3
